Experimental findings from PubChem BioAssay AID1645848 are described below.

As usually defined, the solubility (kinetic) is solubility judged after dilution from a stock solution rather than from solid.

Molecules are shown by their SMILES. Converted amounts (≈) assume the structure as drawn.

The conditions of the series: buffer; pH 7.4; 6.0 h; 150.0 µM.
Take `COc1ccccc1-n1cnc2cc(C(=O)N3CCCCC3)ccc21`: the solubility (kinetic) was more than 50 µg/mL.

`CC(C)Nc1oc(-c2cccc3ccccc23)nc1C#N`: the kinetic solubility was less than 1 µg/mL.

Compound `NC(=O)C1CCN(c2ncc(Br)cn2)CC1` gave a kinetic solubility of more than 42 µg/mL.

Regarding `C[S+](=O)([O-])N1CCC(Cn2ccc3c(N4CCOCC4)nc(-c4cccc5[nH]ccc45)cc32)CC1`, the solubility (kinetic) was less than 1 µg/mL.

`O=C(O)CNC(=O)c1c(O)c2ccccc2n(Cc2ccccc2)c1=O`: the solubility (kinetic) is more than 52 µg/mL.

As for `Cc1ccc(S(=O)(=O)Nc2cnccc2C(=O)Nc2nc3ccccc3s2)cc1`, the kinetic solubility was more than 63 µg/mL.

The compound `Fc1cc(Nc2nc(-c3ccncc3)nc3ccccc23)ccc1N1CCNCC1` showed a solubility (kinetic) of 4.02 µg/mL (≈ 10 µM).

`Cn1cc(S(=O)(=O)N2CCCCCC2)cc1C(=O)Nc1ccc(Cl)c(C(F)(F)F)c1`: the kinetic solubility is less than 1 µg/mL.

`COc1cc2c(cc1NC(=O)COc1ccc(Cl)cc1)oc1ccccc12` displayed a solubility (kinetic) of less than 1 µg/mL.

For the compound `Cc1ccc(S(=O)(=O)Nc2ccncc2C(=O)Nc2nc(-c3ccccc3)cs2)cc1`, the kinetic solubility was less than 1 µg/mL.

For the compound `Cc1cccc2nc(NC3=NC(c4[nH]ncc4Cl)C4=C(CCCC4=O)N3)oc12` (stereo unspecified), the kinetic solubility was determined as 1.82 µg/mL (≈ 4.6 µM).

Regarding `Cc1ccnc(NC(=S)N2CCN(c3cccc(C(F)(F)F)c3)CC2)c1`, the kinetic solubility is 9.68 µg/mL (≈ 25.4 µM). This solubility kinetic lies about 5.3-fold higher than the previous one.

Turning to `O=C(O)Cc1ccc2oc(-c3ccc(NC(=O)/C=C/c4ccc(Br)cc4)c(F)c3)nc2c1`, the solubility (kinetic) is less than 1 µg/mL.

The compound `COc1cccc(CNc2ccc(S(=O)(=O)Nc3cccc(-c4ccccc4)c3)cc2)c1O` gave a kinetic solubility of less than 1 µg/mL.

`COc1ccc(-c2nc3sc(CCNC(=O)C(C)(C)C)c(C)n3n2)cc1`: the solubility (kinetic) was more than 55 µg/mL.

`OCc1cccc(-c2cc(-c3cccnc3)c3cncn3c2)c1` registered a solubility (kinetic) of 18.5 µg/mL (≈ 61.4 µM).

`Cn1c(=O)c2cc(C(=O)NCCCN3CCN(c4ccccc4F)CC3)sc2c2ccccc21`: the solubility (kinetic) is less than 1 µg/mL.

With `CNc1nc(-c2cccc3ccccc23)ccc1C#N`, the kinetic solubility was less than 1 µg/mL.

Consider `CCCCOc1ccc(C2c3c(oc4ccc(C)cc4c3=O)C(=O)N2CCCN(C)C)cc1OCC` (stereo unspecified), for which the kinetic solubility worked out at 58.5 µg/mL (≈ 119 µM).

For `NS(=O)(=O)c1ccc(Cc2c(-c3cccc(-c4ccccc4)c3)nn(-c3nc(C(=O)O)cs3)c2CC2CC2)cc1`, the solubility (kinetic) is more than 84 µg/mL.

In the case of `O=S(=O)(Nc1nccs1)c1ccc(NCc2cc(F)ccc2O)cc1`, the kinetic solubility was more than 56 µg/mL.

Compound `CC[C@H](Nc1ncnc2nc[nH]c12)c1nc2cccc(F)c2c(=O)n1-c1ccccc1` returned a kinetic solubility of more than 61 µg/mL.

Regarding `Cc1ccc(/C=C/c2nc3ccccc3n2S(=O)(=O)c2cccc(Cl)c2)cc1`, the kinetic solubility is less than 1 µg/mL.

In the case of `Cc1nc([C@](C)(O)CO)sc1-c1cnc(N)c(O[C@H](C)c2cc(F)ccc2-n2nccn2)c1`, the solubility (kinetic) is 37.3 µg/mL (≈ 79.2 µM).

`NC(=O)C1CCN(c2nc(-c3ccc(N4CCCCC4)nc3)cs2)CC1` displayed a kinetic solubility of 43.5 µg/mL (≈ 117 µM).

`Cc1ccc(S(=O)(=O)Nc2cnccc2C(=O)Nc2ccc(-c3nn[nH]n3)cc2)cc1` returned a kinetic solubility of more than 64 µg/mL.

`CCc1ccc2oc(=O)cc(CN3CCN(c4ccccc4F)CC3)c2c1` yielded a kinetic solubility of less than 1 µg/mL.

Regarding `COc1ccc(-c2ccc3nc(-c4cc(C)cc(C)c4)oc3c2)c(OC)c1OC`, the kinetic solubility was less than 1 µg/mL.

`CCOC(=O)c1nn(-c2ccccc2)c(=O)c2c(N)scc12` gave a solubility (kinetic) of 4.02 µg/mL (≈ 12.7 µM).

`CCC[C@H](NC(=O)/C(C#N)=C/c1cccc(Br)n1)c1ccccc1` showed a solubility (kinetic) of less than 1 µg/mL.

Compound `O=C(Nc1ccc(Cl)c(S(=O)(=O)N2CCOCC2)c1)c1ccc(S(=O)(=O)N2CCCCC2)cc1` displayed a kinetic solubility of less than 1 µg/mL.

`COc1cc2cc(CN3CCC(N(C)C)C3)c(-c3cccc(Cl)c3)nc2cc1OC` (stereo unspecified) registered a kinetic solubility of more than 42 µg/mL.

Compound `CC(=O)c1c(C)oc2ccc(N(C(=O)Oc3ccccc3)S(=O)(=O)c3ccccc3)cc12` registered a kinetic solubility of less than 1 µg/mL.

With `Cc1ccc(S(=O)(=O)Nc2cnccc2C(=O)Nc2nc(-c3cccnc3)cs2)cc1`, the kinetic solubility is more than 67 µg/mL.

The compound `CN(C)C(=O)c1cccc(-c2csc(N3CCC(C(N)=O)CC3)n2)c1` had a kinetic solubility of more than 53 µg/mL.

Take `COc1ccc(NC(=O)c2[nH]c(C)c(C(C)=O)c2C)cc1S(=O)(=O)N(C)C`: the kinetic solubility is 3.68 µg/mL (≈ 9.34 µM).

On to `Cc1ccc(S(=O)(=O)Nc2cccnc2C(=O)Nc2nc(-c3ccccc3)cs2)cc1`, for which the solubility (kinetic) was less than 1 µg/mL.

With `CSc1nn(Cc2cccc(C)c2)c(N)c1S(=O)(=O)c1ccccc1`, the kinetic solubility was less than 1 µg/mL.

The compound `CCOc1ccc(CCNC(=O)c2cc3ccccc3n2Cc2ccccn2)cc1OCC` registered a kinetic solubility of less than 1 µg/mL.

For the compound `Cc1noc(C)c1S(=O)(=O)Nc1cnccc1C(=O)Nc1nc(-c2ccccc2)cs1`, the solubility (kinetic) was more than 66 µg/mL.

`NC(=O)C1CCN(c2nc(-c3ccc(Br)cc3)cs2)CC1`: the kinetic solubility is less than 1 µg/mL.

For the compound `O=C(Nc1ccc2oc(-c3cccnc3)nc2c1)c1ccc(-c2cccc(Cl)c2)o1`, the kinetic solubility came to 1.1 µg/mL (≈ 2.65 µM).

For the compound `[2H]C([2H])(Nc1nc(-c2ccccc2C([2H])(C([2H])([2H])[2H])C([2H])([2H])[2H])ncc1C)c1ccc(-n2ccnn2)cc1`, the kinetic solubility worked out at 13.5 µg/mL (≈ 34.3 µM).

In the case of `Cc1ccc(C(=O)Nc2nc(-c3ccccn3)cs2)cc1S(=O)(=O)N1CCOCC1`, the solubility (kinetic) came out at 7.21 µg/mL (≈ 16.2 µM).

Take `Cn1ccc2c(C(=O)NCc3cccnc3)nc(-c3ccc(CO)cc3)cc21`: the kinetic solubility was more than 82 µg/mL.

With `Cc1ccc(-c2nc3ccccc3o2)cc1NC(=O)COc1ccccc1`, the solubility (kinetic) was less than 1 µg/mL.

The compound `CCCC1=Nc2cc(C(=O)NC3CCCC3)ccc2Sc2ccc(C)cc21` returned a solubility (kinetic) of less than 1 µg/mL.

For the compound `CCC(CC)c1cc([C@H]2CN3CC[C@H]2C[C@@H]3CNC(=O)COc2ccccc2)nc(-c2ccncc2)n1`, the kinetic solubility was more than 74 µg/mL.

The compound `N=c1c2ccccc2nnn1-c1ccc(C(F)(F)F)cc1` displayed a kinetic solubility of less than 1 µg/mL.

In turn, `NC(=O)c1cccc(-c2cc(Nc3ccc(OC(F)(F)F)cc3)ncn2)c1` displayed a kinetic solubility of less than 1 µg/mL.

Regarding `O=c1cc(CN2CCCN(c3ccc(C(F)(F)F)cn3)CC2)nc2ccccn12`, the solubility (kinetic) is more than 60 µg/mL.

`COC(=O)CNC(=O)c1nc(-c2ccc(Cl)cc2Cl)c2cnccn12` registered a kinetic solubility of 14.2 µg/mL (≈ 37.6 µM).

For `Cc1cc(N[S+](=O)([O-])c2ccc(NC(=O)Cc3ccc(F)c(F)c3)cc2)no1`, the kinetic solubility was more than 60 µg/mL.

`O=C(C1CCN(c2nc(-c3ccc(Br)cc3)cs2)CC1)N1CCNCC1` yielded a kinetic solubility of more than 64 µg/mL.

Consider `CCOc1ccc(CCNC(=O)c2cc3cnccc3n2Cc2cccc(C)c2)cc1OCC`, for which the solubility (kinetic) was more than 68 µg/mL.

The compound `COc1ccnc(NC(=S)N2CCN(c3cccc(C(F)(F)F)n3)CC2)c1` registered a solubility (kinetic) of less than 1 µg/mL.

For the compound `O=S(=O)(Nc1cccc2ccccc12)c1ccc(NCc2ccc(Br)cc2O)cc1`, the kinetic solubility was less than 1 µg/mL.

As to `O=C(Nc1ccc(OC(F)(F)F)cc1)c1sccc1NCc1ccnc2ccccc12`, the kinetic solubility was less than 1 µg/mL.

Take `NC(=O)C1CCN(c2nc(-c3cccc(F)c3)cs2)CC1`: the kinetic solubility is more than 45 µg/mL.

`NC(=O)C1CCN(c2nc(-c3cccc(Cl)c3)cs2)CC1` gave a solubility (kinetic) of 10.6 µg/mL (≈ 32.9 µM).

Take `Cc1cc(NC(=S)N2CCN(c3cccc(C(F)(F)F)c3)CC2)nc2ccccc12`: the solubility (kinetic) came to 4.33 µg/mL (≈ 10.1 µM).

`CNc1oc(-c2ccccc2-c2ccccc2)nc1C#N`: the solubility (kinetic) worked out at 1.21 µg/mL (≈ 4.39 µM). Compared with the last compound, the solubility kinetic is about 3.6-fold lower.

In the case of `CCOC(=O)c1[nH]c(C)c(CCC(=O)N2CCN(c3cc(C)ccc3C)CC2)c1C`, the solubility (kinetic) was 6.25 µg/mL (≈ 15.2 µM). This solubility kinetic lies about 5.2-fold higher than the previous one.

Take `CC(=O)c1c(C)[nH]c(C(=O)Nc2cccc(S(=O)(=O)Nc3ccc(Br)c(F)c3)c2)c1C`: the solubility (kinetic) is less than 1 µg/mL.

The compound `Cc1ccc(-c2cc(C(=O)Nc3ccc(C#N)cc3)c3ccccc3n2)cc1C` yielded a kinetic solubility of less than 1 µg/mL.

For the compound `CC(C)OC(=O)c1ccnc2cc(C(OCCN3CCCCC3)c3ccccc3Cl)sc12` (stereo unspecified), the solubility (kinetic) stood at 16.6 µg/mL (≈ 35 µM).

In turn, `c1ccc(Nc2cc3c(cn2)CN(Cc2ccsc2)CCN3)cc1` showed a kinetic solubility of more than 75 µg/mL.

In turn, `O=C(Nc1nc(-c2ccccc2)cs1)c1ccncc1NS(=O)(=O)c1cccs1` displayed a solubility (kinetic) of less than 1 µg/mL.

With `O=C(Nc1nc(-c2ccccc2)cs1)c1ccncc1NS(=O)(=O)c1ccc(F)cc1F`, the solubility (kinetic) was more than 70 µg/mL.

`COc1ccc(Cn2c(CCC(=O)Nc3cc(C)cc(C)c3)nc3cccnc32)cc1` came in with a solubility (kinetic) of less than 1 µg/mL.

`O=C(O)c1cccc(-n2cccc2/C=C2/NC(=O)N(c3cccc(Cl)c3)C2=O)c1` returned a kinetic solubility of 32.7 µg/mL (≈ 80.1 µM).

As for `CC(=O)Nc1ccc(N[S+](=O)([O-])c2cccc(NC(=O)c3[nH]c(C)c(C(C)=O)c3C)c2)cc1`, the solubility (kinetic) was 18.3 µg/mL (≈ 39 µM).

Compound `COc1cc(NC(=O)c2cc(-c3ccccc3O)no2)cc(OC)c1OC` came in with a kinetic solubility of 1.09 µg/mL (≈ 2.93 µM).

Consider `C=CCON=C(C[C@H]1O[C@@H]2O[C@]3(C)CC[C@@H]4[C@H](C)CC[C@@H]([C@H]1C)[C@@]24OO3)[C@H]1O[C@@H]2O[C@]3(C)CC[C@H]4[C@H](C)CC[C@@H]([C@@H]1C)[C@@]24OO3`, for which the kinetic solubility came to 26.6 µg/mL (≈ 42.1 µM).

`COCCCNC(=O)c1cc2cc(S(=O)(=O)N(C)C)ccc2n1C` registered a solubility (kinetic) of 42.6 µg/mL (≈ 120 µM).

Regarding `CNc1ccc(Br)cc(C(=O)/C=C/c2ccc(OC)cc2OC)c1=O`, the solubility (kinetic) was 1.94 µg/mL (≈ 4.8 µM).

With `CC(C)(C#N)c1ccc(N2C(=O)OCc3cnc4ccc(-c5cnc6ccccc6c5)cc4c32)cc1`, the kinetic solubility was less than 1 µg/mL.

For `Cn1cncc1[C@@](N)(c1ccc(Cl)cc1)c1ccc2c(c1)c(-c1cccc(Cl)c1)cc(=O)n2C`, the kinetic solubility was less than 1 µg/mL.

The compound `Cc1cccc(S(=O)(=O)c2cn(Cc3ccccc3)c3cc(N4CCCC(C)C4)c(F)cc3c2=O)c1` (stereo unspecified) yielded a kinetic solubility of less than 1 µg/mL.

Regarding `COc1ccc(CCNC(=O)c2cc3c(=O)n4ccccc4nc3n(CCCN3CCOCC3)c2=N)cc1`, the kinetic solubility was more than 76 µg/mL.

As to `COc1ccc(Cl)cc1NC(=O)c1sc2nc3c(cc2c1N)N1CCC3CC1`, the kinetic solubility is less than 1 µg/mL.

`CC(C)c1ccccc1-c1ncc(F)c(NCC2CCN(c3cccnc3)CC2)n1` displayed a kinetic solubility of 9.06 µg/mL (≈ 22.3 µM).

`COc1ccc(NC(=O)CCCc2nnc3n(CCC(C)C)c(=O)c4sccc4n23)cc1Cl` came in with a solubility (kinetic) of less than 1 µg/mL.

As to `CC(=O)c1cccc(-c2csc(N3CCC(C(N)=O)CC3)n2)c1`, the kinetic solubility is more than 49 µg/mL.

`CC[C@@](C)(Nc1ccnc(-c2c[nH]c3ncccc23)n1)C(=O)NCC(F)(F)F` yielded a solubility (kinetic) of more than 58 µg/mL.

In turn, `Cc1noc(C)c1-c1cc2c(cc(C)n2C)c(-c2cnn(C)c2)n1` displayed a kinetic solubility of 15.2 µg/mL (≈ 47.2 µM).
